Assay results published in patent US20190209506A1, “METHODS OF REDUCING OR PREVENTING OXIDATION OF LDL OR LIPID MEMBRANES IN A SUBJECT IN NEED THEREOF” (Amarin Pharmaceuticals Ireland Limited, priority 2018, published 2019).

Experiments:
[1] = Lipid hydroperoxide (LOOH) formation in cholesterol-enriched model membranes under autoxidation (Example 3); type: biochemical; details: EPA:lipids 1:30; C/P 0.6:1; autoxidation 37° C., 72 hours
Description: Levels of lipid hydroperoxides were also measured in cholesterol-enriched membrane prepared in the absence of EPA as a control. […] CHOD-iodide color reagent (stock) was prepared according to a procedure modified from El-Saadani et […], Goher […], Jurgens G. A spectrophotometric assay for lipid peroxides in serum lipoproteins using commercially available reagent. (J. Lipid. […] Membrane samples consisting of DLPC±cholesterol were prepared as follows. Component lipids (in chloroform) were transferred to 13×100 mm test tubes and shell-dried under a steady stream of nitrogen gas while vortex mixing. The lipid was co-dried with EPA. Residual solvent was removed by drying for a minimum of 3 h under vacuum. After desiccation, each membrane sample was resuspended in diffraction buffer (0.5 mM HEPES, 154 mM NaCl, pH 7.3) to yield a final phospholipid concentration of 1.0 mg/mL. Multilamellar vesicles (MLV) were formed by vortex mixing for 3 minutes at ambient temperature. […] Absorbances were measured against a CHOD blank at 365 nm using a Beckman DU-640 spectrophotometer. The CHOD colorimetric assay is based on the oxidation of iodide (I^-) by lipid hydroperoxides (LOOH) and proceeds according to the following reaction scheme: The quantity of triiodide anion (I3^-) liberated in this reaction is directly proportional to the amount of lipid hydroperoxides present in the membrane sample.

[2] = LOOH formation in membrane vesicles, EPA dose dependence (Example 18); type: biochemical; details: after four hours
Text: Iodometric analyses were used to measure LOOH formation in membrane vesicles reconstituted as binary mixtures of cholesterol and dilinoleoyl phosphatidylcholine.

HUVECs = assay: NO and ONOO^− release from HUVECs exposed to oxLDL, nanosensors (Example 8); type: cell-based, human; details: ECs exposed to oxLDL; compared to vehicle
Description: Human umbilical vein endothelial cells (HUVECs) were isolated into primary cultures from female donors by Clonetics (San Diego, Calif.) and purchased as proliferating cells. All cell culture donors were healthy, with no pregnancy or prenatal complications. […] The confluent cells (4 to 5×10^5 cells/35 mm dish) were placed with minimum essential medium containing 3 mM L-arginine and 0.1 mM BH4 [(6R)-5,6,7,8-tetrahydrobiopterin]. Before experimental use, the cells (from second or third passage) were rinsed twice with Tyrode-HEPES buffer with 1.8 mM CaCl2.
Plasma was immediately separated by centrifugation at 3,000 g for 10 minutes at 4° C.
Tris-NaCl buffer was added to the dialyzed LDL to adjust the protein concentration to 30 mg/mL. A 1-mL aliquot of 20 μM CuSO4 was added to 1 mL of dialyzed normal LDL.
Concurrent measurements of NO and ONOO^− were performed with tandem electrochemical nanosensors combined into one working unit with a total diameter of 200-400 nm. Their design was based on previously developed and chemically modified carbon-fiber technology. […]
The amperometric method (with a response time of 0.1 ms) provides a quantitative signal (current) that is directly proportional to changes (from basal levels) in NO or ONOO^− concentration. […] Basal NO or ONOO^− levels were measured by differential pulse voltammetry in separate experiments. […]

In the case of `CC/C=C\C/C=C\C/C=C\C/C=C\C/C=C\CCCC(=O)O` [EPA, cis-5,8,11,14,17-eicosapentaenoic acid], the LOOH levels [1] is reported as 728 ± 30 µM, the “reduction of LOOH levels compared to untreated controls” value [1] is reported as “greater than 90%” and the “inhibition of LOOH formation” value ([2]; 1.0 μM, 10 μM copper sulfate) is reported as 6%. For the same compound, the IC50 ([2]; read-out: half-maximum concentration of LOOH inhibition) was ~6 µM, the “inhibition of LOOH formation” value ([2]; maximum concentration (range 1.0 to 10.0 μM)) was 74% and the “increase in NO release” value (HUVECs) was 45%.
